According to ChEMBL document CHEMBL5729033, “Macrocyclic compounds that inhibit MCL-1 protein” (2022):

Molecular target: Induced myeloid leukemia cell differentiation protein Mcl-1/Bcl-2-like protein 11 (Homo sapiens, UniProt Q07820)
Test: Cell Free Mcl-1:Bim Affinity Assay (Mcl-1 HTRF): The inhibition of the Mcl-1/Bim interaction was measured using a time-resolved fluorescence resonance energy transfer (TR-FRET) assay. The recombinant human Mcl-1 (C-terminally 6×His tagged Mcl-1 containing residues 171-327) was generated at Amgen Inc (Thousand Oaks, Calif.). A biotinylated peptide derived from human Bim (residues 51-76) was purchased from CPC Scientific (San Jose, Calif.). The TR-FRET assay was conducted in a 384-well white OptiPlate™ (PerkinElmer, Waltham, Mass.) in a total volume of 40 μL. The reaction mixture contained 0.1 nM Mcl-1(171-327), 0.05 nM biotin-Bim(51-76), 0.05 nM LANCES Eu-W1024 Anti-6×His (PerkinElmer), 0.072 nM Streptavidin-Xlent (Cisbio, Bedford, Mass.), and serially diluted test compounds in the binding buffer of 20 mM Hepes, pH 7.5, 150 mM NaCl, 0.016 mM Brij®35, and 1 mM dithiothreitol. Test compounds were pre-incubated with Mcl-1(171-327) and biotin-Bim (51-76) for 60 min before addition of the detection mixture (LANCE® Eu-W1024 Anti-6×His and Streptavidin-Xlent). The reaction plates were further incubated overnight and then were read on an Envision® multimode reader (PerkinElmer). Fluorescence signals were measured at 620 nm (40-nm bandwidth) and 665 nm (7.5-nm bandwidth) with a 60 μs delay after excitation at 320 nm (75-nm bandwidth). […]
Assay type: protein assay

Chain of Induced myeloid leukemia cell differentiation protein Mcl-1/Bcl-2-like protein 11 (Q07820 whole entry, the tested form may be a part): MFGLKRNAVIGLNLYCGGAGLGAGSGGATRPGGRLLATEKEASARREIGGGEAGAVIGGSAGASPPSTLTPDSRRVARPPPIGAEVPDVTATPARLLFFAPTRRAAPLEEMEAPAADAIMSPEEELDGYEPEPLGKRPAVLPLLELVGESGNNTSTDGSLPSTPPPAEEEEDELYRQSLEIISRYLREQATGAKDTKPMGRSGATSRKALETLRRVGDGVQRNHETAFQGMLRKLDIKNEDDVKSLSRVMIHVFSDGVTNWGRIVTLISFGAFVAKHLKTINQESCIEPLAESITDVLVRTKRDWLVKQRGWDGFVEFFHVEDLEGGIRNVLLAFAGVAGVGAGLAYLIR
Chain of Induced myeloid leukemia cell differentiation protein Mcl-1/Bcl-2-like protein 11 (O43521 whole entry, further chain, the tested form may be a part): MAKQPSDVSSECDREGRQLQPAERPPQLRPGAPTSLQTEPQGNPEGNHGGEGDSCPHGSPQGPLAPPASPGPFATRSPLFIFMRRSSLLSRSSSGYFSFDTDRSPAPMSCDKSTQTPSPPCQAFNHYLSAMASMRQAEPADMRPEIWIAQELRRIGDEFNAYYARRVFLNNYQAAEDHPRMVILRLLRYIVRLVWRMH

Structure (SMILES)	IC50 [pM]
C[C@@H]1[C@@H](C)CCC[C@H](CN2CCN3CCN(C(=O)OC(C)(C)C)C[C@@H]3C2)[C@@H]2CC[C@H]2CN2C[C@@]3(CCCc4cc(Cl)ccc43)COc3ccc(cc32)C(=O)NS1(=O)=O	1420
C[C@@H]1[C@@H](C)CCC[C@@H](CC(=O)N2CCN3CCOC[C@H]3C2)[C@@H]2CC[C@H]2CN2C[C@@]3(CCCc4cc(Cl)ccc43)COc3ccc(cc32)C(=O)NS1(=O)=O	123
